The numbers were not newly measured in US20250262182A1, “Beverage Composition and Process” (priority 2020, published 2025), which cites them from elsewhere.

The structures appear in SMILES notation. Like-named read-outs stand apart in the source and are kept apart here.

On to `NC(=O)NCCC[C@H](N)C(=O)O` [L-citrulline], for which the Adverse effects entry (dosages in the range of 6 g to 10 g) was “mild gastrointestinal upset”; the Adverse effects result (dosages in the range of 10 g to 15 g) was “stomach discomfort, bloating, or diarrhea”; the Adverse effects result (dosages over 20 g) is given as “electrolyte imbalance and/or headaches”. Also, the Tolerability entry (dosages up to 6 g, most people) was “generally well tolerated”.
